In article PMC4735261, “Identification of DYRK1B as a substrate of ERK1/2 and characterisation of the kinase activity of DYRK1B mutants from cancer and metabolic syndrome” (Cellular and Molecular Life Sciences: CMLS, 2015) one finds IC50 data, which are given here for one substance.

This assay has as its target T1, DYRK1B (Homo sapiens, UniProt Q9Y463).
T1 construct: Recombinant DYRK1B expressed in insect cells (Carna Biosciences)
Description: in vitro enzyme assay; MRM mass spectrometry of autophosphorylation sites. The assay is classed as biochemical.

T1 sequence (Q9Y463 whole entry): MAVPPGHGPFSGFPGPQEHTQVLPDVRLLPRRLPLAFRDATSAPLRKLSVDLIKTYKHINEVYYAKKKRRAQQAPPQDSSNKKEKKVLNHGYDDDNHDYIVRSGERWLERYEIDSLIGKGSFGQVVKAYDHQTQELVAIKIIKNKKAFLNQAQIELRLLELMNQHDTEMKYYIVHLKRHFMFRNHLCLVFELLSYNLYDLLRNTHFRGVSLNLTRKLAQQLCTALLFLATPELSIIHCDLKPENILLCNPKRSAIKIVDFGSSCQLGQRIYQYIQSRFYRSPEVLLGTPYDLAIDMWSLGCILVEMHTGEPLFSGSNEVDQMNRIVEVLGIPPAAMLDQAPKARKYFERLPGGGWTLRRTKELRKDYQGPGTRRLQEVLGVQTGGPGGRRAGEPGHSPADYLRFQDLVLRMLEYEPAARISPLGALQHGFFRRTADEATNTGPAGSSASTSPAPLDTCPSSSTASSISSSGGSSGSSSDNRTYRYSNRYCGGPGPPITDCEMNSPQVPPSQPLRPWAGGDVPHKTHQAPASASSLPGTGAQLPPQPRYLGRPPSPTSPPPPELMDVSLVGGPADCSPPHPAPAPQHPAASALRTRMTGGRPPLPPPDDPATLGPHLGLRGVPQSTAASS

As for AZ’294, the IC50 is below 30 nM.
